{"source": "patent US8859464B2", "about": "“Nitrogen containing isethionic acid salts in field ready spray and tank mixes” (Huntsman Petrochemical L LC, priority 2009, dated 2014)", "test_system": "target weed species", "assay": "Water conditioning efficacy in greenhouse evaluation of isopropylamine glyphosate spray tank solutions in hard water", "format": "in vivo", "conditions": "aqueous spray tank solutions of isopropylamine glyphosate, standard hard water, absence of any surfactant, compared with ammonium sulfate", "experimental": "Isethionic acid (Example 1) and ten neutralization products of isethionic acid (Examples 2-11) were used to treat aqueous spray tank solutions of isopropylamine glyphosate in order to measure the water conditioning efficacy of isethionic acid and the other isethionates. Isethionic acid was neutralized with sodium (Examples 2, 6, and 7), ammonia (Examples 3-5) and tallow amine ethoxylates (Examples 8-11—SURFONIC® T-5 surfactant). These candidates were evaluated against the standard agricultural water conditioner, ammonium sulfate in an aqueous tank mix of isopropylamine glyphosate (Control Example). Specifically, the candidates were tested for their ability to condition water as a function of the suppression of water hardness inhibition of pesticides, such as glyphosate. All evaluations were run in the absence of any surfactant in standard hard water as defined by the World Health Organization standard hard waters. The evaluations were run in greenhouse conditions over a variety of plant species, including determining injury to crop species. The reported data was percent control of target weed species and percent injury to crop species. All evaluations (except for one industry standard) were conducted in the absence of any surfactant.", "data": [{"smiles": "O=S(=O)(O)CCO", "note": "[isethionic acid, Isethionic Acid]", "values": [{"measurement": "water conditioning efficacy (suppression of water hardness inhibition of glyphosate)", "result": "functioned at a level comparable to that of the agricultural industry standard ammonium sulfate"}]}]}
